Legend:
Type in all cases: cell-based
LNCaP = assay: Cell growth inhibition assay, prostate cancer cell line LNCaP (medium with 10 ng/mL IL-6); details: Homo sapiens, medium supplemented with 10 ng/mL of IL-6, 10,000 cells/well
Method: (§1) The inhibitory effects of the compounds of the present invention against the growth of cancer cells were evaluated as shown below. The cancer cell lines including stomach cancer cell line (AGS), breast cancer cell lines (MDA-MB-231, MDA-MB-468, and BT-549), prostate cancer cell lines (LNCaP and DU-145), colon cancer cell line (HCT116), ovarian cancer cell line (SW626), liver cancer cell line (Hep3B), kidney cancer cell line (ACHN), lung cancer cell line (NCI-H23) and blood cancer cell lines (HEL92.1.7 and U266) were cultured under the protocol provided by each supplier. A medium supplemented with 10 ng/mL of IL-6 was used for LNCaP, a prostate cancer cell line, when treated with a drug. Each type of cells to be used in experiments were sub-cultured in a 96-well plate by counting the exact number of cells using Tali™ Image-based Cytometer (Life Technologies). In a 96-well plate, AGS, HCT116, and DU-145 were employed with 3,000 cells/well; NCI-H23, SW626, Hep3B, ACHN, BT-549, MDA-MB-231, HEL92.1.7, and U266 were employed with 5,000 cells/well; and LNCaP and MDA-MB-468 were employed with 10,000 cells/well. The cells were treated with the compounds listed in Examples which were diluted in various concentrations. Upon completion of the compounds treatment, AGS, HCT116, SW626, DU145, NCI-H23, Hep3B, ACHN, BT-549, LNCaP, HEL92.1.7, and U266 cells were cultured at 37° C. under 5% CO2 for from 72 to 96 hours, and MDA-MB-231 and MDA-MB-468 cells were cultured at 37° C. in air for from 72 to 96 hours. Subsequently, the cells were observed under microscope and drug precipitation and particular findings were investigated and recorded. And then, the 96-well plate was placed at room temperature for 30 minutes, added with 20 μL/well of CellTiter-Glo solution (Cat No. G7573, Promega) and shaken for 10 minutes, followed by being subjected to the measurement using PHERAstar™ microplate reader (BMG LABTECH) according to the supplier's general luminometer protocol. Wells where only culture liquid added without cell plating were used as a negative control, whereas wells where culture liquid containing 0.1% DMSO instead of the compounds listed in Examples were used as a positive control.

STAT3 = target: T1, STAT3 (Homo sapiens, UniProt P40763); assay: STAT3 reporter gene assay (luciferase), LNCaP stable cell line (pSTAT3-TA-luc), IL-6 stimulation
T1 construct: plasmid pSTAT3-TA-luc), which contains a stably operating STAT3 promoter; endogenous in cells
T1 sequence (P40763 whole entry): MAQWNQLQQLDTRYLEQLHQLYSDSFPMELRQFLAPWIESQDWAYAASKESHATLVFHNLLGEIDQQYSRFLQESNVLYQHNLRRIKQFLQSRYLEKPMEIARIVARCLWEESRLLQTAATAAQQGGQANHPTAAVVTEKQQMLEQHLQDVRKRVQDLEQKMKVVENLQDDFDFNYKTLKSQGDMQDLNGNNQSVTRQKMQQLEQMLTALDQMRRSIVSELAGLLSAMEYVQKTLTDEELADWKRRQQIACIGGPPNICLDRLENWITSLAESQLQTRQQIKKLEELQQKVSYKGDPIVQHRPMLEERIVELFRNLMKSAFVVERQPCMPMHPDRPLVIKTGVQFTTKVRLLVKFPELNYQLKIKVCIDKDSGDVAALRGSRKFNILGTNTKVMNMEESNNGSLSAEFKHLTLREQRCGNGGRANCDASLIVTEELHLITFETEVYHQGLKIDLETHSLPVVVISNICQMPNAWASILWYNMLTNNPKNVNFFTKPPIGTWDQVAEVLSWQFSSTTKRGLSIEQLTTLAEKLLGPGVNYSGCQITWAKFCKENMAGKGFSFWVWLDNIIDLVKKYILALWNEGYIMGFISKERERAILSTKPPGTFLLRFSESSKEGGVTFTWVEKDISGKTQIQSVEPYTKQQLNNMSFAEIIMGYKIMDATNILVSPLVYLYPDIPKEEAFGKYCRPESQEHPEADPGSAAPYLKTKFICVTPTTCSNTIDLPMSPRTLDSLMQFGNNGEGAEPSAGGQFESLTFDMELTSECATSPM
Method: 1-1) Experiment on the Inhibition of STAT3 Activity
A human prostate cancer cell line (LNCaP stable cell line; plasmid pSTAT3-TA-luc), which contains a stably operating STAT3 promoter, was cultured in RPMI1640 medium (Cat No. 11875, Life Technologies) containing 10% fetal bovine serum (FBS) (Cat No. SH30396, Thermo Scientific) and 150 μg/mL G-418 solution (Cat No. 04 727 894 001, Roche). The reporter gene assay using LNCaP stable cell line was performed in RPMI1640 medium containing 3% DCC-FBS without G-418 solution. LNCaP stable cells were plated in two (2) white 96-well plates with 30,000 cells/50 μL in each well. The cells were cultured at 37° C., under 5% CO2 for 24 hours, and then treated with the compounds listed in Examples which were diluted in various concentrations. Subsequently, IL-6 was added to each well with a final concentration of 10 ng/mL. Upon completion of the treatment with the compounds and IL-6, the cells were cultured at 37° C., under 5% CO2 for from 24 to 48 hours. The plates were observed under microscope and drug precipitation and particular findings were investigated and recorded.
The luciferase assay and the cell viability assay were performed respectively with one of the two plates. For the luciferase assay, the liquid media in the 96-well plate was removed, and then, 20 μL of passive cell lysis buffer was added to each well. After shaking the plate for 30 minutes, luciferase activities of each well were measured in a PHERAstar™ microplate reader (BMG LABTECH) using a luciferase assay system (Cat No. E1501, Promega). For the cell viability assay, the 96-well plate was placed at room temperature for 30 minutes, added with 20 μL/well of CellTiter-Glo solution (Cat No. G7573, Promega), and shaken for 10 minutes in order to measure cytotoxicity caused by the compounds listed in Examples with a PHERAstar™ microplate reader (BMG LABTECH). Wells without 0.1% DMSO and stimulation were used as a negative control and wells with 0.1% DMSO and stimulation were used as a positive control.

DU-145 = assay: Cell growth inhibition assay, prostate cancer cell line DU-145; details: Homo sapiens, DU-145 prostate cancer cell line
Method: as §1

Structure (SMILES) | IC50 (LNCaP) | IC50 (STAT3) | IC50 (DU-145)
CC(C)(c1cc(Cl)cc(NC(=O)c2cc3cc(NS(C)(=O)=O)ccc3s2)c1)c1cc(OC2CC2)cc(OC(F)(F)F)c1 [Example 79, N-(3-chloro-5-(2-(3-cyclopropoxy-5-(trifluoromethoxy)phenyl)propan-2-yl)phenyl)-5-(methylsulfonamido)benzo[b]thiophene-2-carboxamide] | 0.039 µM | 0.014 µM | 0.008 µM
COc1cc(OC(F)(F)F)cc(C(C)(C)c2cc(Br)cc(NC(=O)c3cc4cc(NS(C)(=O)=O)ncc4[nH]3)c2)c1 [Example 99, N-(3-bromo-5-(2-(3-methoxy-5-(trifluoromethoxy)phenyl)propan-2-yl)phenyl)-5-(methylsulfonamido)-1H-pyrrolo[2,3-c]pyridine-2-carboxamide 2,2,2-trifluoroacetate] | 1.5 µM | 0.22 µM | 0.8 µM
CC(C)Oc1cc(OC(F)(F)F)cc(C(C)(C)c2cc(Cl)cc(NC(=O)c3cc4ccc(NS(C)(=O)=O)nc4[nH]3)c2)c1 [Example 100, N-(3-chloro-5-(2-(3-isopropoxy-5-(trifluoromethoxy)phenyl)propan-2-yl)phenyl)-6-(methylsulfonamido)-1H-pyrrolo[2,3-b]pyridine-2-carboxamide] | > 10 µM | 0.042 µM | 0.33 µM
CC(C)Oc1cc(OC(F)(F)F)cc(C(C)(C)c2cc(Cl)cc(NC(=O)c3cc4cnc(NS(C)(=O)=O)cc4[nH]3)c2)c1 [Example 101, N-(3-chloro-5-(2-(3-isopropoxy-5-(trifluoromethoxy)phenyl)propan-2-yl)phenyl)-6-(methylsulfonamido)-1H-pyrrolo[3,2-c]pyridine-2-carboxamide] | 1.1 µM | 0.28 µM | 0.44 µM
CC(C)Oc1cc(OC(F)(F)F)cc(C(C)(C)c2cc(Cl)cc(NC(=O)c3cc4c(s3)CCN(NS(C)(=O)=O)C4)c2)c1 [Example 104, N-(3-chloro-5-(2-(3-isopropoxy-5-(trifluoromethoxy)phenyl)propan-2-yl)phenyl)-5-(methylsulfonamido)-4,5,6,7-tetrahydrothieno[3,2-c]pyridine-2-carboxamide] | 0.42 µM | 0.224 µM | 0.58 µM
CC(C)Oc1cc(OC(F)(F)F)cc(C(C)(C)c2cc(Cl)cc(NC(=O)c3cc4cc(NS(C)(=O)=O)c(Cl)cc4s3)c2)c1 [Example 105, 6-chloro-N-(3-chloro-5-(2-(3-isopropoxy-5-(trifluoromethoxy)phenyl)propan-2-yl)phenyl)-5-(methylsulfonamido)benzo[b]thiophene-2-carboxamide] | 0.002 µM | 0.005 µM | 0.001 µM
COc1cccc(C(C)(C)c2cc(Cl)cc(NC(=O)c3cc4cc(NS(C)(=O)=O)ccc4s3)c2)c1 [Example 106, N-(3-chloro-5-(2-(3-methoxyphenyl)propan-2-yl)phenyl)-5-(methylsulfonamido)benzo[b]thiophene-2-carboxamide] | 0.11 µM | 0.52 µM | 0.031 µM
CC#Cc1cc(OC(F)(F)F)cc(C(C)(C)c2cc(Cl)cc(NC(=O)c3cc4cc(NS(C)(=O)=O)ccc4s3)c2)c1 [Example 114, N-(3-chloro-5-(2-(3-(prop-1-yn-1-yl)-5-(trifluoromethoxy)phenyl)propan-2-yl)phenyl)-5-(methylsulfonamido)benzo[b]thiophene-2-carboxamide] | 0.061 µM | 0.02 µM | 0.014 µM
CC(C)(c1cccc(Cn2ccnc2)c1)c1cc(Br)cc(NC(=O)c2cc3cc(NS(C)(=O)=O)ccc3s2)c1 [Example 120, N-(3-(2-(3-((1H-imidazol-1-yl)methyl)phenyl)propan-2-yl)-5-bromophenyl)-5-(methylsulfonamido)benzo[b]thiophene-2-carboxamide] | 3.6 µM | 0.66 µM | 2.2 µM
CC(C)Oc1cc(CN2CCNCC2)cc(C(C)(C)c2cc(Br)cc(NC(=O)c3cc4cc(NS(C)(=O)=O)ccc4s3)c2)c1 [Example 124, N-(3-bromo-5-(2-(3-isopropoxy-5-(piperazin-1-ylmethyl)phenyl)propan-2-yl)phenyl)-5-(methylsulfonamido)benzo[b]thiophene-2-carboxamide] | 6.5 µM | 4 µM | 2.1 µM
CC(C)Oc1cc(CN2CCCC2)cc(C(C)(C)c2cc(Cl)cc(NC(=O)c3cc4cc(NS(C)(=O)=O)ccc4s3)c2)c1 [Example 125, N-(3-chloro-5-(2-(3-isopropoxy-5-(pyrrolidin-1-ylmethyl)phenyl)propan-2-yl)phenyl)-5-(methylsulfonamido)benzo[b]thiophene-2-carboxamide] | 2.1 µM | 0.89 µM | 0.46 µM
CC(C)Oc1cc(CN2CCOCC2)cc(C(C)(C)c2cc(Cl)cc(NC(=O)c3cc4cc(NS(C)(=O)=O)ccc4s3)c2)c1 [Example 126, N-(3-chloro-5-(2-(3-isopropoxy-5-(morpholinomethyl)phenyl)propan-2-yl)phenyl)-5-(methylsulfonamido)benzo[b]thiophene-2-carboxamide] | 0.11 µM | 0.1 µM | 0.11 µM
CC(C)Oc1cc(CN2CCN(S(C)(=O)=O)CC2)cc(C(C)(C)c2cc(Cl)cc(NC(=O)c3cc4cc(NS(C)(=O)=O)ccc4s3)c2)c1 [Example 128, N-(3-chloro-5-(2-(3-isopropoxy-5-((4-(methylsulfonyl)piperazin-1-yl)methyl)phenyl)propan-2-yl)phenyl)-5-(methylsulfonamido)benzo[b]thiophene-2-carboxamide] | 0.41 µM | 0.27 µM | 0.15 µM
CC(C)Oc1cc(CN2CCN(S(=O)(=O)N(C)C)CC2)cc(C(C)(C)c2cc(Cl)cc(NC(=O)c3cc4cc(NS(C)(=O)=O)ccc4s3)c2)c1 [Example 131, N-(3-chloro-5-(2-(3-((4-(N,N-dimethylsulfamoyl)piperazin-1-yl)methyl)-5-isopropoxyphenyl)propan-2-yl)phenyl)-5-(methylsulfonamido)benzo[b]thiophene-2-carboxamide] | 0.26 µM | 0.085 µM | 0.1 µM
CC(C)Oc1cc(CN2CCS(=O)(=O)CC2)cc(C(C)(C)c2cc(Cl)cc(NC(=O)c3cc4cc(NS(C)(=O)=O)ccc4s3)c2)c1 [Example 132, N-(3-chloro-5-(2-(3-((1,1-dioxidothiomorpholino)methyl)-5-isopropoxyphenyl)propan-2-yl)phenyl)-5-(methylsulfonamido)benzo[b]thiophene-2-carboxamide] | 0.97 µM | 0.35 µM | 0.41 µM
CC(C)Oc1cc(CN2CCN(C(=O)N(C)C)CC2)cc(C(C)(C)c2cc(Cl)cc(NC(=O)c3cc4cc(NS(C)(=O)=O)ccc4s3)c2)c1 [Example 133, 4-(3-(2-(3-chloro-5-(5-(methylsulfonamido)benzo[b]thiophene-2-carboxamido)phenyl)propan-2-yl)-5-isopropoxybenzyl)-N,N-dimethylpiperazine-1-carboxamide] | 0.7 µM | 0.15 µM | 0.22 µM

— patent US10562912B2 (C&C Research Laboratories, priority 2013, dated 2020)
